The source made the active and inactive calls. No rule for the calls is given here. Where only a bound is given, the exact number is not on record here.

The experiment concerns the target UPR counterscreen luciferase reporter, luminescence. In words: luciferase reporter activation, UPR counterscreen line – cell-based, luminescence, counter-screen for adaptive UPR activator project, dose response (AID 489027). On the technique in general: A reporter such as luciferase makes a cellular process visible.

For orientation: EC50 means the concentration at which the effect is half-maximal. `Cc1cccnc1Nc1nc(-c2ccc(O)c(O)c2)cs1`: the EC50 is 2.29 µM. Consider `O=[N+]([O-])c1ccc(Cl)c(-c2ccc(/C=N/c3c(-c4ccco4)nc4ccccn34)o2)c1`, for which the EC50 result was “inactive”. With `CCC(C)Nc1nc(N)c([N+](=O)[O-])c(NC2CCCCC2)n1` (stereo not given), the EC50 entry was “inactive”. The entry for `COc1cccc(-c2c(-c3cc(OC)cc(OC)c3)n(C)c3ccc(-c4cnc(N5CCOCC5)nc4)cc23)c1` is “inactive”; for `COc1cc(CNCCO)cc(Cl)c1OCc1ccc(Cl)cc1Cl` it is > 80 µM (inactive). Regarding `Cc1ccc(Cl)cc1N1CCN(Cc2nc3c(c(=O)[nH]c(=O)n3C)n2CCc2ccccc2)CC1`, the EC50 was 16.7 µM.

With `COc1ccc(-c2c/c(=N\c3nc(-c4ccccc4)c(C)s3)c3ccccc3o2)cc1O`, the EC50 entry was “inactive”. In the case of `COc1ccc(-c2csc(NC(=S)NC(=O)/C=C/c3ccco3)n2)cc1Br` it was “inactive”; in that of `CC(C)(C)C(=O)NC(=S)NNC(=O)c1sc2ccccc2c1Cl`, > 80 µM (inactive); in that of `O=C(NC(=S)Nc1cc(-c2nc3ccccc3[nH]2)ccc1Cl)c1ccc2c(c1)OCO2`, 8.21 µM. The figure for `CN(C)CCOc1ccc(-c2c(-c3ccccc3)sc3ccccc23)cc1` is 17 µM; for `COc1ccc(OC)c(-c2nnc3n2N=C(c2ccc(OC)c(OCC4CC4)c2)CS3)c1` it is > 80 µM (inactive); for `CCOC(=O)c1c(NC(=O)CNC2CCCc3ccccc32)sc(C(N)=O)c1C` (stereo not given) it is > 80 µM (inactive). In the case of `CCCc1nc2ccccc2c(=O)n1/N=C/c1ccc(O)c(O)c1` it was 15 µM; in that of `Cc1ccc2nc(NC(=O)c3ccc(-c4nc5ccccc5s4)s3)sc2c1`, 11 µM. On to `CCOC(=O)c1c(NC(=O)/C=C/C(=O)O)sc(C)c1-c1ccc(C(C)(C)C)cc1`, for which the EC50 is > 80 µM (inactive). In the case of `Cc1ccc(NC(=O)c2ccc(N/N=C/c3cccc(O)c3)c([N+](=O)[O-])c2)cc1` it was 6.64 µM; in that of `COc1ccc(-c2cc(-c3ccccc3)c(C#N)c(S(C)(=O)=O)n2)cc1`, 5.05 µM; in that of `CCc1ccccc1NC(=O)C(CC)Sc1nc2cc3c(cc2c(=O)n1Cc1ccco1)OCO3` (stereo not given), 11.6 µM.

Consider `CC1=C(CC/C(C)=N/NC(N)=S)C(C)(C)CCC1`, for which the EC50 is 13.9 µM. In the case of `COc1cc(/C=C2\CC(C(C)(C)C)C/C(=C\c3cc(OC)c(OC)c(OC)c3)C2=O)cc(OC)c1OC` (stereo not given) it was 4 µM; in that of `CCOc1ccc(Cn2c3ccc(OC)cc3c3nc4ccccc4nc32)cc1OC`, “inactive”.

On to `Cc1cc(NC(=O)c2cc(-c3ccncc3)nc3c(C)cccc23)no1`, for which the EC50 is 16 µM. In the case of `CCOc1cccc(C(=O)Nc2cccc(-c3nnc(-c4ccc(C)cc4)o3)c2)c1` it was 12.1 µM; in that of `O=c1cc(C(Cl)(Cl)Cl)oc2c1ccc1ccccc12`, > 80 µM (inactive).

`C#CCn1c(=NC(=O)c2ccc(S(=O)(=O)N3CCc4ccccc4C3)cc2)sc2cc(S(N)(=O)=O)ccc21`: the EC50 was > 80 µM (inactive). In the case of `CCCCOc1ccccc1NC(=O)Cn1c(-c2nonc2N)nc2ccccc21` it was “inactive”; in that of `Cc1ccc(-n2nc3c(N4CCC(C(=O)NCCc5cccs5)CC4)nnc(C)c3c2C)cc1`, > 80 µM (inactive).

As to `COc1ccc(N2CCN(Cc3nc(N)nc(Nc4ccc(C)c(Cl)c4)n3)CC2)cc1`, the EC50 was > 80 µM (inactive). The figure for `C/C(=N\Nc1ncnc2sc(C)c(C)c12)c1ccccn1` is 2.6 µM; for `CSC1=NC(C)(C)C=C(/C=C/c2ccc(Cl)cc2)N1` it is 9.17 µM; for `Cc1ccc(CNC(=O)c2ccc3c(=O)n4c(-c5ccc(C)cc5)csc4nc3c2)cc1` it is > 80 µM (inactive). In the case of `O=c1cc(CN2CCN(c3ccccc3)CC2)c2cc(O)c(-c3ccccc3)cc2o1`, the EC50 was 7 µM.

`CC(C)(C)C(=O)NC(=S)NNC(=O)c1ccc(-c2ccccc2)cc1`: the EC50 was 8.05 µM.

Consider `CCOc1ccc(NC(=S)NC(=O)/C=C/c2ccc(C)cc2)c([N+](=O)[O-])c1`, for which the EC50 is > 80 µM (inactive). For `Cc1cc(C)c2c(CCl)cc(=O)oc2c1`, the EC50 was 19.1 µM. As to `Cc1cc(C)cc(NC(=O)/C(C#N)=C/c2cn(CC(=O)NCc3ccco3)c3ccccc23)c1`, the EC50 was 7.27 µM. The entry for `OCCCn1c(C2CCCN2c2nc(-c3ccc(Cl)cc3)cs2)nc2cc(Cl)c(N3CCCCC3)cc21` (stereo not given) is “inactive”; for `Oc1ccc(-c2nc3ccc4ccccc4c3c3c2CCC3)cc1O` it is 18 µM; for `C[C@@H]1C[C@H]2[C@@H]3CCC4=CC(=O)C=C[C@]4(C)[C@@]3(Cl)[C@@H](O)C[C@]2(C)[C@@]1(OC(=O)c1ccco1)C(=O)CCl` it is > 80 µM (inactive). The figure for `CCc1ccc(NC(=O)C(CC)Sc2nc3cc4c(cc3c(=O)n2Cc2ccco2)OCO4)cc1` (stereo not given) is > 80 µM (inactive); for `CCN(CC)S(=O)(=O)c1ccc2c(c1)C(=NO)c1cc(S(=O)(=O)N(CC)CC)ccc1-2` it is > 80 µM (inactive); for `CC1CCc2cc(F)ccc2N1C(=O)CSc1nnc2c(n1)[nH]c1ccc(F)cc12` (stereo not given) it is > 80 µM (inactive).

`CCOC(=O)/C(=C\c1ccccc1)C(=O)c1cc(C(C)=O)c(Nc2ccccc2)s1`: the EC50 was 3.71 µM. As for `Cc1ccc(C2=Nc3ccc(Br)cc3C(c3ccncc3)=NN2)cc1`, the EC50 entry is “inactive”. Take `O=C(Cn1c2ccccc2c(=O)c2cc([N+](=O)[O-])ccc21)Nc1ccccc1Cl`: the EC50 entry is “inactive”. As to `CSc1ccccc1NC(=O)c1cc(-c2cccnc2)nc2ccc(Br)cc12`, the EC50 was > 80 µM (inactive). The figure for `COc1ccc(OC)c(NC(=O)c2oc3ccccc3c2NC(=O)C2CC2)c1` is > 80 µM (inactive). The entry for `CCOC(=O)C(=CNc1nc(-c2ccccc2)c(C(=O)Nc2ccc(-c3ccccc3)cc2)s1)C(=O)OCC` is “inactive”; for `CCOC(=O)N1CCN(S(=O)(=O)c2ccc(C(=O)Nc3nc4c(s3)CC(C)CC4)cc2)CC1` (stereo not given) it is 9.29 µM.

Take `CCN(CC)c1ccc(N=Cc2c(O)n(-c3ccc(Cl)cc3)c(=O)[nH]c2=O)cc1`: the EC50 is 20 µM. The figure for `CCOC(=O)c1ccc(-c2ccc(/C=N/NC(=O)CN(c3cccc(C)c3)S(C)(=O)=O)o2)cc1` is 15.5 µM. With `CCN(CC)S(=O)(=O)c1ccc(N/N=C(\C)c2ccc3c(c2)OCO3)c([N+](=O)[O-])c1`, the EC50 entry is “inactive”. The figure for `Cn1cc(/C=C(\C#N)C(=O)Nc2cccc([N+](=O)[O-])c2)c2ccccc21` is > 80 µM (inactive); for `C#CCn1c(=NC(=O)c2ccc(Br)s2)sc2cccc(OC)c21` it is > 80 µM (inactive); for `CCOC(=O)c1nnc(-c2ccc(C)cc2)nc1Sc1ccccc1Cl` it is 14.8 µM.

Turning to `O=C(/C=C/c1ccc(Cl)cc1)NC(=S)Nc1ccc(N2CCOCC2)c(Cl)c1`, the EC50 is > 80 µM (inactive). As for `Cc1c(CCOC(=O)C23CC4(C)CC(C)(CC(C)(C4)C2)C3)sc[n+]1CC(=O)c1ccccc1`, the EC50 was > 80 µM (inactive).

As for `O=C(Nc1ccc(O)c2c(=O)cc(-c3cccc(Cl)c3)oc12)c1cccc(Cl)c1`, the EC50 entry was “inactive”. In the case of `Cc1ccc(S(=O)(=O)N(CC(=O)N/N=C/c2ccc(F)cc2)c2cccc3cccnc23)cc1`, the EC50 is 1.92 µM.

(Values after PubChem BioAssay AID489027 (Sanford-Burnham Center for Chemical Genomics, 2010).)
